Test results reported in patent US20020022059A1, “Water treatment process” (priority 1996, published 2002).

Columns and labels:
algae bloom = experiment: Application of algicide-flocculant treatment against an algae bloom in a South Texas water plant; conditions: clarifier
[1] = pH 7, or more alkaline water
Text: Since the incoming raw water most often has a pH of 7 or above, this causes the crystals to acquire a coating of copper hydroxide that inhibits dissolution of the blue vitriol crystals into the water.

For O.O.O.O.O.O=S(=O)([O-])[O-].[Cu+2] [blue vitriol crystals, cupric sulfate pentahydrate], the “outcome of algae bloom” value (algae bloom) was “had battled an algae bloom” and the dissolution in water [1] was “do not dissolve very well”.
